{
  "source": "ChEMBL document CHEMBL1140456",
  "about": "“Synthesis and screening of 3-substituted thioxanthen-9-one-10,10-dioxides” (Bioorg Med Chem Lett, 2007)",
  "molecular_target": "Breast cancer type 1 susceptibility protein (Homo sapiens, UniProt P38398)",
  "sequence (P38398 whole entry)": "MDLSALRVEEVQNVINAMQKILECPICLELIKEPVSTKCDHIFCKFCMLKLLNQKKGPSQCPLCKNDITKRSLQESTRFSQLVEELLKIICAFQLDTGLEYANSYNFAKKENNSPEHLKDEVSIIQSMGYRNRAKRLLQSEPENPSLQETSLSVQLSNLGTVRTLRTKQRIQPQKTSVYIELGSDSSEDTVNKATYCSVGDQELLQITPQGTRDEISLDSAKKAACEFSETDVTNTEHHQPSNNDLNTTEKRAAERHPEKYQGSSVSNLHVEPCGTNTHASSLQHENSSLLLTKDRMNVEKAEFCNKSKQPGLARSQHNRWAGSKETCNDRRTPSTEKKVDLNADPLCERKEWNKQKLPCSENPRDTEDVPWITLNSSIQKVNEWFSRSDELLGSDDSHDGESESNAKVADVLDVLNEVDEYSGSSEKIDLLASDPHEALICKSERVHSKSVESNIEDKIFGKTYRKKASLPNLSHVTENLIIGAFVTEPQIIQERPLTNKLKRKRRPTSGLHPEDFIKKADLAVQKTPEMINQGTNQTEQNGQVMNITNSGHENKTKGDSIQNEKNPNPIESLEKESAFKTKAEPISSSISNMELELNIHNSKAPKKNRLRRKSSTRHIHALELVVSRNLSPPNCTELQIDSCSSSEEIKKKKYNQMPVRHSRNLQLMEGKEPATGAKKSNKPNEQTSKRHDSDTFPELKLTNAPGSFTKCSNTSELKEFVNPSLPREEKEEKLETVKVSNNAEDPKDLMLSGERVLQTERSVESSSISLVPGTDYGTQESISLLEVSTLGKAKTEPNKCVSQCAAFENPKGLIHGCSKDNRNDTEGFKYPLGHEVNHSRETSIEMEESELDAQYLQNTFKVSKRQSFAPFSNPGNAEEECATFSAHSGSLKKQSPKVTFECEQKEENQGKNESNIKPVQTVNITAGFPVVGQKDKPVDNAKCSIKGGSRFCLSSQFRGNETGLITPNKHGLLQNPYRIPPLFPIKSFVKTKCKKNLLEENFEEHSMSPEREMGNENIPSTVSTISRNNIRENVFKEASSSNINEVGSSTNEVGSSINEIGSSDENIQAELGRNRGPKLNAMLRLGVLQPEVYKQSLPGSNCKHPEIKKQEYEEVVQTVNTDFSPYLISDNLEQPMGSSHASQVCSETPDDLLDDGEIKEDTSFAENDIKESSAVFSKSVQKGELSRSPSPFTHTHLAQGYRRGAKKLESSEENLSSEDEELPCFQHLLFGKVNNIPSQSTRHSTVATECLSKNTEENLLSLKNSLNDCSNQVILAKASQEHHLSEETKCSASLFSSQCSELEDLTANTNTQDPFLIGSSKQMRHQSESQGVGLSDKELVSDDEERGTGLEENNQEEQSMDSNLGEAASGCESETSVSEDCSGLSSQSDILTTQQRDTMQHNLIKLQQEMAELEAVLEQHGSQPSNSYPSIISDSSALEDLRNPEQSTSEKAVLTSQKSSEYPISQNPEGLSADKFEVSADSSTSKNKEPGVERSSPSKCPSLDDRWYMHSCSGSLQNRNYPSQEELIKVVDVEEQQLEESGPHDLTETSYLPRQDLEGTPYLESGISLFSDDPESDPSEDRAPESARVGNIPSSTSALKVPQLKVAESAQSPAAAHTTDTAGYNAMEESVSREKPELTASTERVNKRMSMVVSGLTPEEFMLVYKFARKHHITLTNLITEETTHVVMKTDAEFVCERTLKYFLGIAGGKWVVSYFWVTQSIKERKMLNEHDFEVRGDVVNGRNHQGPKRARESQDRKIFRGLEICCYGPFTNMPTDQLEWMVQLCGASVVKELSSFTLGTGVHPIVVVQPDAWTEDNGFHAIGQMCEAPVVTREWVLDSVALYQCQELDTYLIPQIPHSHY",
  "experiment": "Inhibition of BRCA1 assessed as BRCT-BACH1 interaction",
  "data": [
    {"smiles": "CC1CCN(c2ccc3c(c2)S(=O)(=O)c2ccccc2C3=O)CC1", "values": [
      {"measurement": "Ki", "result": 39, "unit": "µM"}
    ]},
    {"smiles": "O=C1c2ccccc2S(=O)(=O)c2cc(N3CCC(Cc4ccccc4)CC3)ccc21", "values": [
      {"measurement": "Ki", "result": 38, "unit": "µM"}
    ]},
    {"smiles": "NC(=O)C1CCN(c2ccc3c(c2)S(=O)(=O)c2ccccc2C3=O)CC1", "values": [
      {"measurement": "Ki", "result": 30, "unit": "µM"}
    ]}
  ]
}
